Results from publication PMC11167021, “Discovery of a new class of cell-penetrating peptides by novel phage display platform” (Scientific Reports, 2024).

Columns and labels:
HEK cells = assay: Internalization of peptides on phage by confocal microscopy; type: cell-based; conditions: peptide displayed on phage, compared with ORD 5 phage pools
From the text: Confocal microscopy was used to investigate the internalization and cytoplasmic localization of the selected peptides on phage. First, we used the phage pool. […] Some of these peptides had been identified from the selection against all three cell lines and some were cell-type selective. […] Representative images showing different internalization levels of NNJA peptides on phage were shown in Supplementary Fig. S6. Confirmation of internalization for select peptides was obtained using the same approach in Caco2 cells (Supplementary Figs. S7, S8).
Cells were fixed with 4% paraformaldehyde (PFA) on ice for 20 min after the washing steps. Fixed cells were washed with PBS for three times to remove any excess PFA, and followed by 1 h blocking in 3% bovine serum albumin (BSA) in Tris buffer saline (TBS) with 0.2% triton X-100, and antibodies staining in TBS with 0.2% triton X-100. Primary antibodies were incubated with cell samples overnight at 4 °C. Following PBS washes, species-specific Alexa Fluor 488, Alexa Fluor 568, and/or Alexa Fluor 647-coupled secondary antibodies were used for signal detection. Imaging data collection was conducted on an LSM800 (Zeiss) confocal microscope, using a 40× (NA 1.1 W LD C-Apochromat, Zeiss) objective. Controls treated with secondary antibody were shown negative or undetectable signal.

HEK-239 cells = assay: Double-displayed phage carrying streptavidin-HRP, cellular uptake detected with TMB; type: cell-based; conditions: peptide displayed on phage PIII, streptavidin-HRP on pIX; n = 2
Method: (§1) We further evaluated the ability of NNJA peptides on phage to deliver functional groups into HEK-239 and CaCo2 cells by displaying an Avi-tag peptide on the minor coat protein pIX. Post biotinylation of Avi-tag by BirA, streptavidin-HRP was added to phage, forming a phage-protein complex (Avi[bio]/CPP-SA-HRP).
(§2) A randomly picked peptide ([…]) from the naïve library was incorporated in the setting and served as one of the negative controls. The method was described previously. Cell viability was evaluated in a replicated experimental group under the same assay condition using CellTiter-Glo luminescent cell viability assay from Promega.

Caco2 cells = conditions: peptide displayed on phage PIII, streptavidin-HRP on pIX; n = 2
Method: as §1, §2

| Sequence | phage internalization in HEK cells, M13 antibody signal (HEK cells) | cellular uptake of phage-protein complex (Avi[bio]/CPP-SA-HRP), TMB signal, HEK-239 cells (HEK-239 cells) | cellular uptake of phage-protein complex (Avi[bio]/CPP-SA-HRP), TMB signal, CaCo2 cells (Caco2 cells) |
| --- | --- | --- | --- |
| GRKKRRQRRRPQ [Tat48–60, classic CPP] | lower signal intensity | – | – |
| TVSRELTPL (phage displayed) [random peptide] | – | minimum signal | minimum signal |
